Structures can show the parent of a compound that is named as a salt.

One assay deals with Acetylcholinesterase (Torpedo californica, UniProt P04058). Description: Inhibition of Torpedo californica AChE. Further details: species or system Tetronarce californica.
Assay [1] has as its target T1, Acetylcholinesterase (Mus musculus) (UniProt P21836).
T1 sequence (whole entry): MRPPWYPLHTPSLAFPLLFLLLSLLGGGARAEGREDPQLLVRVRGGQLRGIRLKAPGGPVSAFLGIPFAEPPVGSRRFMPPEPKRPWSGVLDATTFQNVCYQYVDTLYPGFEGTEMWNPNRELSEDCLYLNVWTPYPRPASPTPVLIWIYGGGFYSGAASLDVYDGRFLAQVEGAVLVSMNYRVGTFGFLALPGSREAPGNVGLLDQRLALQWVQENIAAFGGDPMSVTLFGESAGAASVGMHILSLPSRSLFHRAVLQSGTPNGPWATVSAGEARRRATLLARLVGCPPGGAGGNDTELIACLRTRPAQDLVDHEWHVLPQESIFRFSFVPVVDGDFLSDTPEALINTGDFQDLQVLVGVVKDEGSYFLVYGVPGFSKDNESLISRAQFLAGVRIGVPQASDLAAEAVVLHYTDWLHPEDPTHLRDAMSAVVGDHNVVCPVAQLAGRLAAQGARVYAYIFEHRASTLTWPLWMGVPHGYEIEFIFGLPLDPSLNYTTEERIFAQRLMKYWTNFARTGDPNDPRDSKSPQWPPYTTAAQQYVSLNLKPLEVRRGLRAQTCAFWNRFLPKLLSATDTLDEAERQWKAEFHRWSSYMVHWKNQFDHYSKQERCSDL
As to conditions: CD1, Brain, 1.5 mg/kg.
Description: Inhibition of AChE in CD1 mouse brain at 1.5 mg/kg, po after 4 hrs

Chain of Acetylcholinesterase (P04058 whole entry): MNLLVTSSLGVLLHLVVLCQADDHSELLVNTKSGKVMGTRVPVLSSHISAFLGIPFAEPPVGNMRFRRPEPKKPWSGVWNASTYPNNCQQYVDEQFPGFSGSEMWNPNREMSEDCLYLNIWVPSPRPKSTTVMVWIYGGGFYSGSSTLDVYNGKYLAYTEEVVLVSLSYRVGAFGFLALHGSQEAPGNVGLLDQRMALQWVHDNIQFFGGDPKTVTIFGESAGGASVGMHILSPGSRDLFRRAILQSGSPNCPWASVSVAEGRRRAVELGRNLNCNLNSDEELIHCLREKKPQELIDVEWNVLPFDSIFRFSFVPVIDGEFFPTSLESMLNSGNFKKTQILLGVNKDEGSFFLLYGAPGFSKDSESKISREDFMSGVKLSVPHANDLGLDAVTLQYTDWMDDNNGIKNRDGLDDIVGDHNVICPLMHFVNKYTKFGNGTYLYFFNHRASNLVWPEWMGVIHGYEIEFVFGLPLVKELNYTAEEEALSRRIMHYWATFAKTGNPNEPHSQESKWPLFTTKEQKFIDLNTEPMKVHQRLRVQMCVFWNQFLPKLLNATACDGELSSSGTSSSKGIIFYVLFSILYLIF

One may read the IC50 as the concentration needed to halve the response being measured. Lower therefore signals inhibition by little substance. Regarding `CN1c2ccc(OC(=O)Nc3ccccc3)cc2[C@]2(C)CC[N+](C)([O-])[C@H]12` (stereo partly drawn), the IC50 at Acetylcholinesterase stood at 4.74 µM.

Compound `Cc1ccc(NC(=O)Oc2ccc3c(c2)[C@]2(C)CC[N+](C)([O-])[C@@H]2N3C)cc1` (stereo partly drawn) came in with an IC50 on Acetylcholinesterase of 7.61 µM.

Regarding `Cc1cccc(NC(=O)Oc2ccc3c(c2)[C@]2(C)CC[N+](C)([O-])[C@@H]2N3C)c1` (stereo partly drawn), the IC50 against Acetylcholinesterase came to 5.13 µM.

`Cc1cc(C)cc(NC(=O)Oc2ccc3c(c2)[C@]2(C)CC[N+](C)([O-])[C@@H]2N3C)c1` (stereo partly drawn) yielded an IC50 against Acetylcholinesterase of 8.58 µM.

By inhibition is commonly meant the share of the control response that was lost under treatment. Low readings indicate little suppression, high ones strong suppression. As for `CCN(C)C(=O)Oc1cccc([C@H](C)N(C)C)c1` [RIVASTIGMINE TARTRATE], 187 µM corresponded to half-maximal inhibition against Acetylcholinesterase (IC50). Also, the inhibition in assay [1] amounted to 73%.

`CC(C)c1ccccc1NC(=O)Oc1ccc2c(c1)[C@]1(C)CC[N+](C)([O-])[C@@H]1N2C` (stereo partly drawn): the IC50 against Acetylcholinesterase stood at 8.38 µM.

`CCc1cccc(NC(=O)Oc2ccc3c(c2)[C@]2(C)CC[N+](C)([O-])[C@@H]2N3C)c1` (stereo partly drawn) gave an IC50 against Acetylcholinesterase of 9.8 µM.

`Cc1ccccc1NC(=O)Oc1ccc2c(c1)[C@]1(C)CC[N+](C)([O-])[C@@H]1N2C` (stereo partly drawn) returned an IC50 against Acetylcholinesterase of 4.04 µM.

For `CCCc1ccccc1NC(=O)Oc1ccc2c(c1)[C@]1(C)CC[N+](C)([O-])[C@@H]1N2C` (stereo partly drawn), inhibition on Acetylcholinesterase was half-maximal at 8.44 µM (IC50).

On Acetylcholinesterase, `Cc1cccc(C)c1NC(=O)Oc1ccc2c(c1)[C@]1(C)CC[N+](C)([O-])[C@@H]1N2C` (stereo partly drawn) displayed an IC50 of 186 µM.

In the case of `CCc1ccccc1NC(=O)Oc1ccc2c(c1)[C@]1(C)CC[N+](C)([O-])[C@@H]1N2C` (stereo partly drawn), the IC50 against Acetylcholinesterase amounted to 5.12 µM.

Consider `CNC(=O)Oc1ccc2c(c1)[C@]1(C)CC[N+](C)([O-])[C@@H]1N2C` (stereo partly drawn) [GENESERINE], for which, at Acetylcholinesterase, the IC50 is 1.74 µM.

These data come from ChEMBL document CHEMBL1145334, “Structural determinants of Torpedo californica acetylcholinesterase inhibition by the novel and orally active carbamate based anti-alzheimer drug ganstigmine (CHF-2819)” (J Med Chem, 2006).
